Source: ChEMBL document CHEMBL6121019, “Design, synthesis and biological evaluation of bisnoralcohol derivatives as novel IRF4 inhibitors for the treatment of multiple myeloma” (Eur J Med Chem, 2025)
Active and inactive are the calls of the source. No cut-off for these calls is given here.

Columns and labels:
[1] = Terminal elimination half life in ICR mouse plasma at 10 mg/kg, po; format: ADME, organism-based; conditions: read-out: beta t1/2 (converted)
NCI-H929 [2] = experiment: Antiproliferative activity against human NCI-H929 cells with siRNA mediated IRF4#2 knockdown at 0.125 to 1 uM measured upto 5 days by MTS assay; format: functional, cell-based; conditions: dose 0.125-1 µM, time <= 5.0 day
[3] = AUC (0 to infinity) in ICR mouse plasma at 1.0 mg/kg, iv; format: ADME, organism-based
NCI-H929 [4] = experiment: Antitumor activity against human NCI-H929 cells xenografted in Balb/C nude mouse model assessed as inhibition of […] expression at 25 mg/kg by Western blot analysis; format: functional, organism-based
NCI-H929 [5] = experiment: Induction of cell cycle arrest in human NCI-H929 cells assessed as accumulation of cells at G2 phase at 0.25 uM measured after 24 hrs by flow cytometry analysis (reference value: 13.37%); format: functional
NCI-H929 [6] = experiment: Downregulation of E2F5 expression in human NCI-H929 cells measured after 24 hrs by qRT-PCR analysis; format: functional, cell-based; conditions: dose 0.125-1 µM
MM.1R [7] = experiment: Antiproliferative activity against human MM1.R cells with siRNA mediated IRF4 knockdown measured upto 5 days by MTS assay; format: functional, cell-based; conditions: time <= 5.0 day
NCI-H929 [8] = experiment: Induction of cell cycle arrest in human NCI-H929 cells assessed as accumulation of cells at S phase at 0.125 uM measured after 24 hrs by flow cytometry analysis (reference value: 32.14%); format: functional
MM.1R [9] = experiment: Antiproliferative activity against human MM1.R cells with siRNA mediated IRF4#1 knockdown at 0.125 to 1 uM measured upto 5 days by MTS assay; format: functional, cell-based; conditions: dose 0.125-1 µM, time <= 5.0 day
[10] = Apparent volume of distribution in ICR mouse plasma at 1.0 mg/kg, iv; format: ADME, organism-based; conditions: read-out: Vz
HAF = experiment: Effect on IRF4 expression in human HAF cells by Western blot analysis; format: functional, cell-based
[11] = Antiproliferative activity against human MM1.R cells assessed as inhibition of cell viability measured after 72 hrs by MTS assay; format: functional, cell-based; conditions: MM.1R
[12] = Terminal elimination half life in ICR mouse plasma at 1.0 mg/kg, iv; format: ADME, organism-based; conditions: read-out: beta t1/2 (converted)
[13] = Clearance in ICR mouse plasma at 1.0 mg/kg, iv; format: ADME, organism-based
NCI-H929 [14] = experiment: Inhibition of ERK phosphorylation level in human NCI-H929 cells at 0.1 to 1 uM by Western blot analysis; format: functional, cell-based; conditions: dose 0.1-1 µM
NCI-H929 [15] = experiment: Antiproliferative activity against human NCI-H929 cells assessed as inhibition of 3D clone forming ability measured after 2 to 3 weeks; format: functional, cell-based; conditions: dose 0.125-1 µM, time 2-3 weeks
NCI-H929 [16] = experiment: Induction of cell cycle arrest in human NCI-H929 cells assessed as accumulation of cells at G1 phase at 0.25 uM measured after 24 hrs by flow cytometry analysis (reference value: 54.12%); format: functional
NCI-H929 [17] = experiment: Antitumor activity against human NCI-H929 cells xenografted in Balb/C nude mouse model assessed as inhibition of Akt phosphorylation level at 25 mg/kg by Western blot analysis; format: functional, organism-based
MM.1R [18] = experiment: Antiproliferative activity against human MM1.R cells with siRNA mediated IRF4#2 knockdown at 0.125 to 1 uM measured upto 5 days by MTS assay; format: functional, cell-based; conditions: dose 0.125-1 µM, time <= 5.0 day
MM.1R [19] = experiment: Antiproliferative activity against human MM1.R cells assessed as inhibition of 3D clone forming ability measured after 2 to 3 weeks; format: functional, cell-based; conditions: dose 0.125-1 µM, time 2-3 weeks
NCI-H929 [20] = experiment: Antiproliferative activity against human NCI-H929 cells assessed as inhibition of cell viability measured after 72 hrs by MTS assay; format: functional, cell-based; conditions: NCI-H929, 72 h
NCI-H929 [21] = experiment: Antitumor activity against human NCI-H929 cells xenografted in Balb/C nude mouse model assessed as inhibition of tumor volume measured after 34 days; format: functional; conditions: dose 12.5-25 mg/kg, time 34.0 day
NCI-H929 [22] = experiment: Induction of cell cycle arrest in human NCI-H929 cells assessed as accumulation of cells at G1 phase at 0..5 uM measured after 24 hrs by flow cytometry analysis (reference value: 54.12%); format: functional
MM.1R [23] = experiment: Induction of cell cycle arrest in human MM1.R cells assessed as inhibition of CDC2 protein expression at 0.1 to 1 uM; format: functional, cell-based; conditions: dose 0.1-1 µM
MM.1R [24] = experiment: Induction of cell cycle arrest in human MM1.R cells assessed as inhibition of cyclin E1 protein expression at 0.1 to 1 uM; format: functional, cell-based; conditions: dose 0.1-1 µM
NCI-H929 [25] = experiment: Antitumor activity against human NCI-H929 cells xenografted in Balb/C nude mouse model assessed as inhibition of inhibition of cyclin D1 expression at 25 mg/kg by Western blot analysis; format: functional, organism-based
NCI-H929 [26] = experiment: Antitumor activity against human NCI-H929 cells xenografted in Balb/C nude mouse model assessed as inhibition of ERK phosphorylation level at 25 mg/kg by Western blot analysis; format: functional, organism-based
NCI-H929 [27] = experiment: Induction of cell cycle arrest in human NCI-H929 cells assessed as inhibition of cyclin E1 protein expression at 0.1 to 1 uM; format: functional, cell-based; conditions: dose 0.1-1 µM
[28] = biological target: T1, Interferon regulatory factor 4 (Homo sapiens, UniProt Q15306); experiment: Inhibition of IRF4 (unknown origin) incubated for 1 hr by fluorescence polarization assay
T1 sequence (Q15306 whole entry): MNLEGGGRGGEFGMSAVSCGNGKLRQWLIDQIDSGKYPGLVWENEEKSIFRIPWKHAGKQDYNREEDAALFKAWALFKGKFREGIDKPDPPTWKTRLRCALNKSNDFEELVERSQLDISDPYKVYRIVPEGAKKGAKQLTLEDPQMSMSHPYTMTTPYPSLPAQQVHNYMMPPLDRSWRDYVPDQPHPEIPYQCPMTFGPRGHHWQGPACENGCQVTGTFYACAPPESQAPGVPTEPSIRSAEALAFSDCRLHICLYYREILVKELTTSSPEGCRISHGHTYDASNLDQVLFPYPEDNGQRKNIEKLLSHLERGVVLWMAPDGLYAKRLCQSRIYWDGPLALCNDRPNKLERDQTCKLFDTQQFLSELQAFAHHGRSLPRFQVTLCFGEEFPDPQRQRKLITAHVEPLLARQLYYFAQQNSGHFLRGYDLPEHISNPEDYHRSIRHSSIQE

MM.1R [29] = experiment: Downregulation of Blimp1 expression in human MM1.R cells measured after 24 hrs by qRT-PCR analysis; format: functional, cell-based; conditions: dose 0.125-1 µM
MM.1R [30] = experiment: Downregulation of CCNC expression in human MM1.R cells measured after 24 hrs by qRT-PCR analysis; format: functional, cell-based; conditions: dose 0.125-1 µM
[31] = Toxicity in Balb/C nude mouse assessed as side effects at 12.5 to 25 mg/kg administered once daily and measured every three days for 34 days by H and E staining based analysis; format: organism-based; conditions: in vivo, 816 h, dose 12.5-25 mg/kg, time 34 day

**Q.** With `COc1ccc(NC(=O)[C@@H](C)[C@H]2CC[C@H]3[C@@H]4C(=O)C=C5C(C)(C)C(=O)C(C#N)=C[C@]5(C)[C@H]4CC[C@]23C)cc1` as the molecule, how does the half-life [1] read?
**A.** 6.71 h

**Q.** And the Activity (NCI-H929 [2])?
**A.** Active

**Q.** And the AUC(0-inf) [3]?
**A.** 86 ng·h/mL

**Q.** And the Activity (NCI-H929 [4])?
**A.** Active

**Q.** What about the Activity (NCI-H929 [5]) of the same molecule?
**A.** 14.14%

**Q.** And the Activity (NCI-H929 [6])?
**A.** Active

**Q.** And the Activity (MM.1R [7])?
**A.** Active

**Q.** And the Activity (NCI-H929 [8])?
**A.** 30.67%

**Q.** What about the Activity (MM.1R [9]) of the same molecule?
**A.** Active

**Q.** And the Vd [10]?
**A.** 20.8 L/kg

**Q.** And the Activity (HAF)?
**A.** inactive

**Q.** And the IC50 [11]?
**A.** 110 nM

**Q.** And the half-life [12]?
**A.** 1.25 h

**Q.** And the clearance [13]?
**A.** 197 mL/min/kg

**Q.** What about the inhibition (NCI-H929 [14]) of the same molecule?
**A.** Active

**Q.** And the Activity (NCI-H929 [15])?
**A.** Dose-dependent-effect

**Q.** What about the Activity (NCI-H929 [16]) of the same molecule?
**A.** 60.31%

**Q.** What about the Activity (NCI-H929 [17]) of the same molecule?
**A.** Active

**Q.** And the Activity (MM.1R [18])?
**A.** Active

**Q.** And the Activity (MM.1R [19])?
**A.** Dose-dependent-effect

**Q.** What about the IC50 (NCI-H929 [20]) of the same molecule?
**A.** 80 nM

**Q.** And the Activity (NCI-H929 [21])?
**A.** Active; More Effective Than Lenalidomide

**Q.** What about the Activity (NCI-H929 [22]) of the same molecule?
**A.** 64.61%

**Q.** And the Activity (MM.1R [23])?
**A.** Active

**Q.** And the Activity (MM.1R [24])?
**A.** Active

**Q.** And the Activity (NCI-H929 [25])?
**A.** Active

**Q.** And the Activity (NCI-H929 [26])?
**A.** Active

**Q.** What about the Activity (NCI-H929 [27]) of the same molecule?
**A.** Active

**Q.** What about the IC50 [28] of the same molecule?
**A.** 2630 nM

**Q.** What about the Activity (MM.1R [29]) of the same molecule?
**A.** Active

**Q.** What about the Activity (MM.1R [30]) of the same molecule?
**A.** Active

**Q.** And the Activity [31]?
**A.** Non-toxic
